From patent publication US10865191B2, “Heterocyclic compounds useful as modulators of TNF alpha” (BRISTOL-MYERS SQUIBB COMPANY, priority 2015, dated 2020)

What follows are compounds tested against TNFα (Homo sapiens, UniProt P01375) (assay: TNF induced HEK-Blue assay (NF-kB-driven secreted alkaline phosphatase reporter)). Conditions: TNFα 0.5 ng/mL, HEK-Blue-CD40L cells, 18 h; read-out: TNF induced HEK-Blue assay IC50 value.
Assay type: cell-based
How it was run: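 HEK-Blue-CD40L cells (NF-kB-driven SEAP reporter), 20,000/well, added after 30 min pre-incubation of compound (0.004–25 μM final) with TNFα 0.5 ng/mL final at 37 °C; 18 h incubation. SEAP read with QUANTI-Blue at 620 nm; IC50 from 4-parameter logistic fit, normalized to unstimulated and stimulated DMSO controls.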

TNFα, sequence (P01375 77-233 limits assumed): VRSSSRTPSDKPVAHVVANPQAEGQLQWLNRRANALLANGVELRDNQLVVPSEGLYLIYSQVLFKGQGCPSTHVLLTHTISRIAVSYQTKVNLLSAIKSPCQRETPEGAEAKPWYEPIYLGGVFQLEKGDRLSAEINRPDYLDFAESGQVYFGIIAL

Compound	IC50 [µM]
Cc1ccc(C)c(Nc2c(Cl)c(C(=O)Nc3cccnc3)nc3ccc(-c4ccc(C(N)=O)nc4)cc23)c1 [Example 37, 6-(6-carbamoylpyridin-3-yl)-3-chloro-4-((2,5-dimethylphenyl)amino)-N-(pyridin-3-yl) quinoline-2-carboxamide]	10 to 25
Cc1ccc(C)c(Nc2c(Cl)c(CO)nc3ccc(-c4ccc(C#N)nc4)cc23)c1 [Example 40, 5-(3-chloro-4-((2,5-dimethylphenyl)amino)-2-(hydroxymethyl)quinolin-6-yl)picolinonitrile]	1 to 10
Cc1ccc(C)c(Nc2c(Cl)c(COc3cccnc3)nc3ccc(-c4ccc(C#N)nc4)cc23)c1 [Example 41, 5-(3-chloro-4-((2,5-dimethylphenyl)amino)-2-((pyridin-3-yloxy)methyl)quinolin-6-yl)picolinonitrile]	1 to 10
Cc1ccc(C)c(Nc2c(Cl)c(CN=[N+]=[N-])nc3ccc(-c4ccc(C#N)nc4)cc23)c1 [Example 42, 5-(2-(azidomethyl)-3-chloro-4-((2,5-dimethylphenyl)amino)quinolin-6-yl)picolinonitrile]	1 to 10
Cc1ccc(C)c(Nc2c(Cl)c(CN)nc3ccc(-c4ccc(C#N)nc4)cc23)c1 [Example 43, 5-(2-(aminomethyl)-3-chloro-4-((2,5-dimethylphenyl)amino)quinolin-6-yl)picolinonitrile]	1 to 10
Cc1ccc(C)c(Nc2c(Cl)c(N)nc3ccc(-c4cnc(N5CCN(CC(=O)O)CC5)nc4)cc23)c1 [Example 45, 2-(4-(5-(2-amino-3-chloro-4-((2,5-dimethylphenyl)amino)quinolin-6-yl)pyrimidin-2-yl)piperazin-1-yl)acetic acid]	< 1
CC(Nc1c(Cl)c(N)nc2ccc(-c3cnc(N4CCN(CC(=O)O)CC4)nc3)cc12)c1ccccc1F (stereo not drawn) [Example 46, 2-(4-(5-(2-amino-3-chloro-4-((1-(2-fluorophenyl)ethyl)amino)quinolin-6-yl)pyrimidin-2-yl)piperazin-1-yl) acetic acid]	< 1
Cc1ccc(C)c(Nc2c(Cl)c(C)nc3ccc(-c4ccc(C(=O)NCCCCN)nc4)cc23)c1 [Example 65, N-(4-aminobutyl)-5-(3-chloro-4-((2,5-dimethylphenyl)amino)-2-methylquinolin-6-yl) picolinamide]	1 to 10
Cc1ccc(C)c(Nc2c(Cl)c(N)nc3ccc(-c4cnc(NCC(C)(C)O)nc4)cc23)c1 [Example 69, 1-((5-(2-amino-3-chloro-4-((2,5-dimethylphenyl)amino)quinolin-6-yl)pyrimidin-2-yl)amino)-2-methylpropan-2-ol]	< 1
Cc1ccc(C)c(Nc2c(Cl)c(N)nc3ccc(-c4cnc(NCCO)nc4)cc23)c1 [Example 70, 2-((5-(2-amino-3-chloro-4-((2,5-dimethylphenyl)amino)quinolin-6-yl)pyrimidin-2-yl)amino)ethan-1-ol]	< 1
Cc1ccc(C)c(Nc2c(Cl)c(N)nc3ccc(-c4cnc(NC(CO)CO)nc4)cc23)c1 [Example 71, 2-((5-(2-amino-3-chloro-4-((2,5-dimethylphenyl)amino)quinolin-6-yl)pyrimidin-2-yl)amino)propane-1,3-diol]	< 1
Cc1ccc(C)c(Nc2c(Cl)c(N)nc3ccc(-c4cnc(N5CCNC(=O)C5)nc4)cc23)c1 [Example 72, 4-(5-(2-amino-3-chloro-4-((2,5-dimethylphenyl)amino)quinolin-6-yl)pyrimidin-2-yl)piperazin-2-one]	< 1
O=C(O)[C@@H]1CN(c2ncc(-c3ccc4ncc(Cl)c(N[C@@H](c5ccccc5F)C(F)F)c4c3)cn2)CCN1 [Example 74, (S)-4-(5-(3-chloro-4-(((S)-2,2-difluoro-1-(2-fluorophenyl)ethyl)amino)quinolin-6-yl)pyrimidin-2-yl)piperazine-2-carboxylic acid]	1 to 10
NC1(C(=O)O)CCN(c2ncc(-c3ccc4ncc(Cl)c(N[C@@H](c5ccccc5F)C(F)F)c4c3)cn2)CC1 [Example 75, (S)-4-amino-1-(5-(3-chloro-4-((2,2-difluoro-1-(2-fluorophenyl)ethyl)amino)quinolin-6-yl)pyrimidin-2-yl)piperidine-4-carboxylic acid]	< 1
O=C(O)CN1CCN(c2ncc(-c3ccc4ncc(Cl)c(N[C@@H](c5ccccc5F)C(F)F)c4c3)cn2)CC1=O [Example 76, (S)-2-(4-(5-(3-chloro-4-((2,2-difluoro-1-(2-fluorophenyl)ethyl)amino)quinolin-6-yl)pyrimidin-2-yl)-2-oxopiperazin-1-yl)acetic acid]	< 1
O=C(O)CC1CCN(c2ncc(-c3ccc4ncc(Cl)c(N[C@@H](c5ccccc5F)C(F)F)c4c3)cn2)CC1 [Example 78, (S)-2-(1-(5-(3-chloro-4-((2,2-difluoro-1-(2-fluorophenyl)ethyl)amino)quinolin-6-yl)pyrimidin-2-yl)piperidin-4-yl)acetic acid]	< 1
C[C@@H](Nc1c(Cl)cnc2ccc(-c3ccc(N4CCN(CC(=O)O)C(=O)C4)nc3)cc12)c1ccccc1F [Example 81, (R)-2-(4-(5-(3-chloro-4-((1-(2-fluorophenyl)ethyl)amino)quinolin-6-yl)pyridin-2-yl)-2-oxopiperazin-1-yl)acetic acid]	1 to 10
C[C@@H](Nc1c(Cl)cnc2ccc(-c3ccc(N4CCC(CC(=O)O)CC4)nc3)cc12)c1ccccc1F [Example 82, (R)-2-(1-(5-(3-chloro-4-((1-(2-fluorophenyl)ethyl)amino)quinolin-6-yl)pyridin-2-yl)piperidin-4-yl)acetic acid]	< 1

Continued, values first:

IC50 [µM]	Compound
< 1	Cc1ccc(C)c(Nc2c(Cl)c(CO)nc3ccc(-c4cnc(C(C)(C)O)nc4)cc23)c1 [Example 44, 2-(5-(3-chloro-4-((2,5-dimethylphenyl)amino)-2-(hydroxymethyl)quinolin-6-yl)pyrimidin-2-yl)propan-2-ol]
< 1	CC(C)(O)c1ncc(-c2ccc3ncc(Cl)c(NN4CCc5ccccc54)c3c2)cn1 [Example 47, 2-(5-(3-chloro-4-(indolin-1-ylamino)quinolin-6-yl)pyrimidin-2-yl)propan-2-ol]
1 to 10	C[C@@H](Nc1c(Cl)cnc2ccc(-c3cnc(C(C)(C)O)nc3)cc12)c1cc(Cl)ncc1F [Example 53, (R)-2-(5-(3-chloro-4-((1-(2-chloro-5-fluoropyridin-4-yl)ethyl)amino)quinolin-6-yl)pyrimidin-2-yl)propan-2-ol]
< 1	CN(Nc1c(Cl)cnc2ccc(-c3cnc(C(C)(C)O)nc3)cc12)c1ccccc1 [Example 54, 2-(5-(3-chloro-4-(2-methyl-2-phenylhydrazinyl)quinolin-6-yl)pyrimidin-2-yl)propan-2-ol]
10 to 25	CC(C)(O)c1ncc(-c2ccc3ncc(Cl)c(NCc4ccc(Br)cc4-n4cccn4)c3c2)cn1 [Example 56, 2-(5-(4-((4-bromo-2-(1H-pyrazol-1-yl)benzyl)amino)-3-chloroquinolin-6-yl)pyrimidin-2-yl)propan-2-ol]
< 1	C[C@@H](Nc1c(Cl)cnc2ccc(-c3cnc(C(C)(C)O)nc3)cc12)C1CCCCC1 [Example 58, (R)-2-(5-(3-chloro-4-((1-cyclohexylethyl)amino)quinolin-6-yl)pyrimidin-2-yl)propan-2-ol]
10 to 25	C[C@H](Nc1c(Cl)cnc2ccc(-c3cnc(C(C)(C)O)nc3)cc12)C1CCCCC1 [Example 59, (S)-2-(5-(3-chloro-4-((1-cyclohexylethyl)amino)quinolin-6-yl)pyrimidin-2-yl)propan-2-ol]
< 1	C=CC[C@@H](Nc1c(Cl)cnc2ccc(-c3cnc(C(C)(C)O)nc3)cc12)c1cc(Cl)ccn1 [Example 63, (R)-2-(5-(3-chloro-4-((1-(4-chloropyridin-2-yl)but-3-en-1-yl)amino)quinolin-6-yl)pyrimidin-2-yl)propan-2-ol]
1 to 10	CCN(Cc1c(Cl)cnc2ccc(-c3cnc(C(C)(C)O)nc3)cc12)c1ccccc1 [Example 66, 2-(5-(3-chloro-4-((ethyl(phenyl)amino)methyl)quinolin-6-yl)pyrimidin-2-yl)propan-2-ol]
1 to 10	CN(Cc1c(Cl)cnc2ccc(-c3cnc(C(C)(C)O)nc3)cc12)c1ccccc1F [Example 67, 2-(5-(3-chloro-4-(((2-fluorophenyl)(methyl)amino)methyl)quinolin-6-yl)pyrimidin-2-yl)propan-2-ol]
< 1	CCN(Cc1c(Cl)cnc2ccc(-c3cnc(C(C)(C)O)nc3)cc12)c1ccccc1F [Example 68, 2-(5-(3-chloro-4-((ethyl(2-fluorophenyl)amino)methyl)quinolin-6-yl)pyrimidin-2-yl)propan-2-ol]
< 1	O=C1CN(c2ncc(-c3ccc4ncc(Cl)c(N[C@@H](c5ccccc5F)C(F)F)c4c3)cn2)CCN1 [Example 79, (S)-4-(5-(3-chloro-4-((2,2-difluoro-1-(2-fluorophenyl)ethyl)amino)quinolin-6-yl)pyrimidin-2-yl)piperazin-2-one]
< 1	CC(C)(O)CNc1ncc(-c2ccc3ncc(Cl)c(N[C@@H](c4ccccc4F)C(F)F)c3c2)cn1 [Example 80, (S)-1-((5-(3-chloro-4-((2,2-difluoro-1-(2-fluorophenyl)ethyl)amino)quinolin-6-yl)pyrimidin-2-yl)amino)-2-methylpropan-2-ol]
< 1	C[C@@H](Nc1c(Cl)cnc2ccc(-c3ccc(N4CCO[C@@H](CO)C4)nc3)cc12)c1ccccc1F [Example 83, ((R)-4-(5-(3-chloro-4-(((R)-1-(2-fluorophenyl)ethyl)amino)quinolin-6-yl)pyridin-2-yl)morpholin-2-yl)methanol]
< 1	C[C@@H](Nc1c(Cl)cnc2ccc(-c3ccc(N4CCN[C@H](CO)C4)nc3)cc12)c1ccccc1F [Example 84, ((S)-4-(5-(3-chloro-4-(((R)-1-(2-fluorophenyl)ethyl)amino)quinolin-6-yl)pyridin-2-yl)piperazin-2-yl)methanol]
